Measured values: paper PMC5321741, “Arylmethylamino steroids as antiparasitic agents” (Nature Communications, 2017)
Like-named read-outs stand apart in the source and are kept apart here.

Key:
[1] = cytotoxicity on HeLa cells; type: cell-based; conditions: human, HeLa cells
In short: (§1)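 K-562 and HeLa seeded at ∼10,000 cells/well; HeLa preincubated 48 h without compound before cytotoxicity testing. 72 h exposure at 37 °C, 5% CO2; K-562 counted by electronic cell analyzer, HUVEC and HeLa glutaraldehyde-fixed, methylene blue-stained, OD 660 nm; GI50 (antiproliferative) and CC50 (cytotoxicity) derived.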

[2] = target: haem (FeIIIPPIX, π-π dimer); test: spectrophotometric titration of haematin π-π dimer; type: binding; conditions: absorption spectrophotometric titration, pH 7.5; read-out: Dissociation Constant KD of haematin-drug complex
[3] = pH 7.5
Procedure: Spectrophotometric titration of 1o or 2o by Cu(II) and Fe(III)
Typically, an aliquot of 250 µl (or 500 µl) of a stock solution (~ 0.89 mM) of 1o or 2o was
dissolved in 2.5 (or 2.0 ml) of a mixed solvent made of 0.2 M sodium hepes buffer at pH 7.5
and DMSO (1:1 v/v) in a 1 cm Hellma optical quartz cell. The absorption spectrophotometric
titrations were carried out by adding microvolumes of a stock solution of the metallic cation (5
mM for Cu(II) or 7.36 mM for Fe(III). Aliquots of 5 µl of the stock metal solution were
successively added to the reaction mixture, and after each addition a UV-visible absorption
spectrum (250 nm < λ < 800 nm) was recorded with an Agilent Cary 5000 spectrophotometer. Special care was taken to ensure that equilibrium was attained after
each addition of the substrate. The association constants KL.M (L = 1o, 2o and M = Fe(III) or
Cu(II)) and the stoichiometry of the species at equilibrium were determined by processing the
spectrophotometric data with the Specfit program. The uncertainties on the log K values are given as 3 with  = standard deviation.

[4] = test system: adult Schistosoma mansoni; test: schistosome in vitro culture with inhibitor treatment; type: cell-based; conditions: for morphological effects (confocal laser scanning microscopy): 5 μM, 6–13 days; for starting concentration with negative influence on worm physiology: pairing stability, egg production, survival, bright-field microscopy
[5] = test system: P. falciparum (strain 3D7); test: 72 h 3H-hypoxanthine incorporation assay, asexual blood stages; type: cell-based, Plasmodium falciparum
[6] = test system: Aspergillus fumigatus JMRC:Afum:00073; test: spore inhibition test; type: cell-based; conditions: 48 h; start concentration 1 mg/ml (1o, 2o), 100 µg/ml (Amphotericin B)
Procedure: (§2) The following test organisms were used for their susceptibility to compounds 1o and 2o: Alternaria alternata JMRC:SF:09317, Arthroderma benhamiae JMRC:ST:35888, Aspergillus fumigatus JMRC:Afum:00073=ATCC 46645, Aspergillus terreus JMRC:SF:06307, Candida albicans JMRC:ST:35864, Lichtheimia corymbifera JMRC:SF:09682, Penicillium chrysogenum JMRC:SF:10137, Rhizopus arrhizus (syn. R. oryzae) JMRC:SF:05857=ATCC 56536, CBS 112.07.
(§3) Fungi were grown on 3% malt extract solidified medium for 1 to 2 weeks at room temperature. Then the plates were washed with 7 ml sterile distilled water, and the spore suspension was filtered through 4 layers of sterile Miracloth (Kalbiochem, USA) to remove the hyphae. The concentration of the spore suspension was set to 2 × 10^4 conidia ml^−1 for the in vitro assays.
(§4) The spore inhibition assay took place in 96-well microplates (flat base). 50 μl of the prepared spore suspension was seeded and then mixed with 50 μl of the respective inhibitor substance. Tests were started with end concentrations of 1 mg ml^−1 and were then reduced in a minimum of 10 halving steps. Thus a 2 mg ml^−1 stock solution diluted in half ten times with solvent (distilled water, 2% DMSO in distilled water, or 2% DMF in distilled water) and each 50 μl was transferred to 50 μl spore suspension. For each test substance, 12 holes on the microtiter plate were filled. After 24 h incubation (25 °C), the germination of the spores was macroscopically and microscopically examined directly in the microtiter plate via measurement of the optical density and light microscopy using an inverse stereomicroscope with subsequent photodocumentation, respectively. If necessary, the plates were further incubated for another 24 or 48 h, depending on the extent of fungal germination.

[7] = test system: Aspergillus terreus JMRC:SF:06307; test: spore inhibition test; type: cell-based; conditions: 48 h; start concentration 1 mg/ml (1o, 2o), 100 µg/ml (Amphotericin B)
Procedure: as §2, §3, §4

[8] = test system: Alternaria alternata JMRC:SF:09317; test: spore inhibition test; type: cell-based; conditions: 48 h; start concentration 1 mg/ml (1o, 2o), 100 µg/ml (Amphotericin B)
Procedure: as §2, §3, §4

[9] = test system: Candida albicans JMRC:ST:35864; test: spore inhibition test; type: cell-based; conditions: 48 h
Procedure: as §2, §3, §4

[10] = test system: Arthroderma benhamiae JMRC:ST:35888; test: spore inhibition test; type: cell-based; conditions: 72 h
Procedure: as §2, §3, §4

[11] = test system: Lichtheimia corymbifera JMRC:SF:09682; test: spore inhibition test; type: cell-based; conditions: 48 h; start concentration 1 mg/ml (1o, 2o), 100 µg/ml (Amphotericin B)
Procedure: as §2, §3, §4

[12] = test system: Rhizopus arrhizus (syn. R. oryzae) JMRC:SF:05857; test: spore inhibition test; type: cell-based; conditions: 48 h; start concentration 1 mg/ml (1o, 2o), 100 µg/ml (Amphotericin B)
Procedure: as §2, §3, §4

[13] = test system: Penicillium chrysogenum JMRC:SF:10137; test: spore inhibition test; type: cell-based; conditions: 48 h
Procedure: as §2, §3, §4

[14] = test system: HUVEC; test: antiproliferative activity on HUVEC cells; type: cell-based; conditions: Homo sapiens, HUVEC, 72 h
In short: as §1

[15] = test system: P. falciparum strain Dd2; test: 72 h 3H-hypoxanthine incorporation assay, chloroquine-resistant strain; type: cell-based; conditions: Plasmodium falciparum
[16] = Plasmodium falciparum, 3D7, 72 h 3H-hypoxanthine incorporation, asexual blood stages, read-out: Antiplasmodial activity IC50 Pf (3D7)
[17] = start concentration 1 mg/ml (1o, 2o), 100 µg/ml (Amphotericin B)
[18] = start concentration 1 mg/ml, given in mg

COc1ccc2c(c1)CCC1C2CC[C@@]2(C)C1CC[C@H]2NCc1cc2ccccc2cc1O (stereo partly shown) [1o]
CC50 at 72 h [1]: > 113000 nM | Kd [2]: 3300 nM | stability constants log KLM of 1:1 complexes [3]: 4.1-4.7 | morphological effects (confocal laser scanning microscopy) [4]: swellings and invaginations occurred at the tegument | reduction of egg production and motility ([4]; 10 µM, starting from days 1 and 2): about 75% | effect on survival ([4]; 20 µM, from day 2 on): nearly all worms were dead | starting concentration with negative influence on worm physiology [4]: 5 μM | IC50 ([5]; 72 h 3H-hypoxanthine incorporation, asexual blood stages, read-out: Antiplasmodial activity IC50 Pf (3D7)): 4.1 nM | IC50 [5, 16]: ~5 nM | IC50 ([5]; Plasmodium falciparum, 3D7, chloroquine-sensitive and resistant P. falciparum parasites, read-out: IC50 against intraerythrocytic stages): 1 to 5 nM | antifungal profile, 1st value = microscopic visualization-based observation, Aspergillus fumigatus [6]: 250 | antifungal profile, 2nd value = optical density-based observation, Aspergillus fumigatus [6]: 250 | antifungal profile, 1st value = microscopic visualization-based observation, Aspergillus terreus [7]: 250 | antifungal profile, 2nd value = optical density-based observation, Aspergillus terreus [7]: 125 | antifungal profile, 1st value = microscopic visualization-based observation, Alternaria alternata [8]: 500 | antifungal profile, 2nd value = optical density-based observation, Alternaria alternata [8]: 250 | antifungal profile, 2nd value = optical density-based observation, Candida albicans [9, 17]: 500 | antifungal profile, 1st value = microscopic visualization-based observation, Candida albicans [9, 18]: 1 mg | antifungal profile, 1st value = microscopic visualization-based observation, Arthroderma benhamiae [10, 17]: 500 | antifungal profile, 2nd value = optical density-based observation, Arthroderma benhamiae [10, 18]: 1 mg | antifungal profile, 1st value = microscopic visualization-based observation, Lichtheimia corymbifera [11]: 500 | antifungal profile, 2nd value = optical density-based observation, Lichtheimia corymbifera [11]: 62.5 | antifungal profile, 1st value = microscopic visualization-based observation, Rhizopus arrhizus [12]: 500 | antifungal profile, 2nd value = optical density-based observation, Rhizopus arrhizus [12]: 500 | antifungal profile, 2nd value = optical density-based observation, Penicillium chrysogenum [13, 17]: 125 | antifungal profile, 1st value = microscopic visualization-based observation, Penicillium chrysogenum [13, 18]: 1 mg | GI50 [14]: 108000 nM | IC50 [15]: 1 ± 0.9 nM

COc1ccc2c(c1)CCC1C2CC[C@@]2(C)C1CC[C@@H]2NCc1cc2ccccc2cc1O (stereo partly shown) [2o]
CC50 at 72 h [1]: > 113000 nM | Kd [2]: 8300 nM | stability constants log KLM of 1:1 complexes [3]: 4.1-4.7 | morphological effects (confocal laser scanning microscopy) [4]: the diameter of the testicular lobes was reduced, the ovary was disorganized | effect on survival ([4]; 10 µM): caused the death of the parasites within a week | time to death of worms ([4]; 10 µM): ≤ 3 days | time to death of worms ([4]; 20 µM): 1 days | starting concentration with negative influence on worm physiology [4]: 1 μM | IC50 [5, 16]: 6.6 nM | antifungal profile, 1st value = microscopic visualization-based observation, Aspergillus fumigatus [6]: 250 | antifungal profile, 2nd value = optical density-based observation, Aspergillus fumigatus [6]: 125 | antifungal profile, 1st value = microscopic visualization-based observation, Aspergillus terreus [7]: 250 | antifungal profile, 2nd value = optical density-based observation, Aspergillus terreus [7]: 4 | antifungal profile, 1st value = microscopic visualization-based observation, Alternaria alternata [8]: 125 | antifungal profile, 2nd value = optical density-based observation, Alternaria alternata [8]: 15,6 | antifungal profile, 1st value = microscopic visualization-based observation, Candida albicans [9, 17]: 500 | antifungal profile, 2nd value = optical density-based observation, Candida albicans [9, 17]: 250 | antifungal profile, 1st value = microscopic visualization-based observation, Arthroderma benhamiae [10, 17]: 31.2 | antifungal profile, 2nd value = optical density-based observation, Arthroderma benhamiae [10, 17]: 2 | antifungal profile, 1st value = microscopic visualization-based observation, Lichtheimia corymbifera [11]: 62.5 | antifungal profile, 2nd value = optical density-based observation, Lichtheimia corymbifera [11]: 7.8 | antifungal profile, 1st value = microscopic visualization-based observation, Rhizopus arrhizus [12]: 500 | antifungal profile, 2nd value = optical density-based observation, Rhizopus arrhizus [12]: 500 | antifungal profile, 1st value = microscopic visualization-based observation, Penicillium chrysogenum [13, 17]: 250 | antifungal profile, 2nd value = optical density-based observation, Penicillium chrysogenum [13, 17]: 125 | GI50 [14]: 13800 nM | IC50 [15]: 2 ± 1.2 nM
